According to patent publication CN111517978A, “环己烯基-dl-天门冬氨酸衍生物及其制备方法、组合物与用途” (Zhongshan Wanhan Pharmaceutical Co ltd, priority 2020, dated 2020):

What was measured:
Type in all cases: cell-based
Details in all cases: component A (XP or YS) alone
[1] = test system: Micrococcus lysodeikticus 2665 (溶壁微球菌2665); experiment: Antibacterial action (MIC, FICI) against Micrococcus lysodeikticus 2665 (Table 4)
[2] = test system: Serratia marcescens IFO 3736 (黏质沙雷氏菌IFO 3736); experiment: Antibacterial action (MIC, FICI) against Serratia marcescens IFO 3736 (Table 10)
[3] = test system: Providencia stuartii 57 (斯氏普罗威登斯菌57); experiment: Antibacterial action (MIC, FICI) against Providencia stuartii 57 (Table 12)
[4] = test system: Streptococcus intermedius ATCC27335 (中间链球菌ATCC27335); experiment: Antibacterial action (MIC, FICI) against Streptococcus intermedius ATCC27335 (Table 20)
[5] = test system: Bacteroides fragilis ATCC25285 (脆弱拟杆菌ATCC25285); experiment: Antibacterial action (MIC, FICI) against Bacteroides fragilis ATCC25285 (Table 26)
[6] = test system: Klebsiella pneumoniae NCTC 9632 (肺炎克雷伯菌NCTC 9632); experiment: Antibacterial action (MIC, FICI) against Klebsiella pneumoniae NCTC 9632 (Table 9)
[7] = test system: Shigella flexneri 2aEW-10 (福氏志贺氏菌2aEW-10); experiment: Antibacterial action (MIC, FICI) against Shigella flexneri 2aEW-10 (Table 15)
[8] = test system: Clostridium perfringens ATCC13124 (产气荚膜梭状芽孢杆菌ATCC13124)
[9] = test system: Escherichia coli ATCC25922 (大肠杆菌ATCC25922); experiment: Antibacterial action (MIC, FICI) against Escherichia coli ATCC25922 (Table 7)
[10] = test system: Stenotrophomonas maltophilia NCTC 13637 (嗜麦芽窄食单胞菌NCTC 13637); experiment: Antibacterial action (MIC, FICI) against Stenotrophomonas maltophilia NCTC 13637 (Table 18)
[11] = test system: Propionibacterium acnes ATCC11828 (痤疮丙酸杆菌ATCC11828); experiment: Antibacterial action (MIC, FICI) against Propionibacterium acnes ATCC11828 (Table 21)

Structure (SMILES)	MIC_A [1]	MIC_A [2]	MIC_A [3]	MIC_A [4]	MIC_A [5]	MIC_A [6]	MIC_A [7]	MIC_A [8]	MIC_A [9]	MIC_A [10]	MIC_A [11]
CCOC(=O)C1=C[C@H](OC(CC)CC)[C@H](NC(CC(=O)O)C(=O)O)[C@@H](NC(C)=O)C1 (mixture of isomers) [化合物18P, ((1R,2S,6S)-6-乙酰氨基-4-(乙氧基羰基)-2-(戊-3-基氧基)环己-3-烯-1-基)-DL-天门冬氨酸]	6 ng/mL	53 ng/mL	22 ng/mL	27 ng/mL	17 ng/mL	–	–	–	–	–	–
CCOC(=O)C1=C[C@@H](OC(CC)CC)[C@H](NC(CC(=O)O)C(=O)O)[C@@H](N=[N+]=[N-])C1 (mixture of isomers) [化合物21P, ((1R,2R,6S)-6-叠氮基-4-(乙氧基羰基)-2-(戊-3-基氧基)环己-3-烯-1-基)-DL-天门冬氨酸]	13 ng/mL	–	–	–	13 ng/mL	15 ng/mL	17 ng/mL	56 ng/mL	–	–	–
CC(=O)N[C@H]1[C@H](O)C=C(C(=O)O)C[C@@H]1NC(CC(=O)O)C(=O)O (mixture of isomers) [化合物15P, ((1S,5R,6R)-6-乙酰氨基-3-羧基-5-羟基环己-3-烯-1-基)-DL-天门冬氨酸]	–	–	–	–	24 ng/mL	–	3 ng/mL	47 ng/mL	15 ng/mL	24 ng/mL	–
CCC(CC)O[C@@H]1C=C(C(=O)O)C[C@H](NC(CC(=O)O)C(=O)O)[C@H]1NC(C)=O (mixture of isomers) [化合物10P, ((1S,5R,6R)-6-乙酰氨基-3-羧基-5-(戊-3-基氧基)环己-3-烯-1-基)-DL-天门冬氨酸]	–	–	–	–	6 ng/mL	–	25 ng/mL	–	–	–	35 ng/mL
CCOC(=O)C1=C[C@H](OC(CC)CC)[C@H](N)[C@@H](NC(C)=O)C1 [化合物18S, 乙基(3S,4R,5S)-5-乙酰氨基-4-氨基-3-(戊-3-基氧基)环己-1-烯-1-羧酸酯]	418 ng/mL	992 ng/mL	959 ng/mL	1137 ng/mL	305 ng/mL	–	–	–	–	–	–
CC(=O)N[C@H]1[C@H](O)C=C(C(=O)O)C[C@@H]1N [化合物15S, (3R,4R,5S)-4-乙酰氨基-5-氨基-3-羟基环己-1-烯-1-羧酸]	–	–	–	–	730 ng/mL	–	303 ng/mL	681 ng/mL	354 ng/mL	1138 ng/mL	–
CCOC(=O)C1=C[C@@H](OC(CC)CC)[C@H](N)[C@@H](N=[N+]=[N-])C1 [化合物21S, 乙基(3R,4R,5S)-4-氨基-5-叠氮基-3-(戊-3-基氧基)环己-1-烯-1-羧酸酯]	407 ng/mL	–	–	–	375 ng/mL	613 ng/mL	533 ng/mL	884 ng/mL	–	–	–
CCOC(=O)C1=C[C@@H](OC(CC)CC)[C@H](NC(C)=O)[C@H](N)C1 [化合物9S, 乙基(3R,4R,5R)-4-乙酰氨基-5-氨基-3-(戊-3-基氧基)环己-1-烯-1-羧酸酯]	462 ng/mL	864 ng/mL	440 ng/mL	410 ng/mL	316 ng/mL	–	–	–	–	–	–
CCOC(=O)C1=C[C@@H](OC(CC)CC)[C@@H](NC(C)=O)[C@H](NC(CC(=O)O)C(=O)O)C1 (mixture of isomers) [化合物5P, ((1R,5R,6S)-6-乙酰氨基-3-(乙氧基羰基)-5-(戊-3-基氧基)环己-3-烯-1-基)-DL-天门冬氨酸]	–	–	–	–	20 ng/mL	17 ng/mL	24 ng/mL	–	–	–	15 ng/mL
CCOC(=O)C1=C[C@@H](OC(CC)CC)[C@@H](NC(C)=O)[C@H](N)C1 [化合物5S, 乙基(3R,4S,5R)-4-乙酰氨基-5-氨基-3-(戊-3-基氧基)环己-1-烯-1-羧酸酯]	–	–	–	–	323 ng/mL	507 ng/mL	483 ng/mL	–	–	–	919 ng/mL
CCC(CC)O[C@@H]1C=C(C(=O)O)C[C@H](N)[C@H]1NC(C)=O [化合物10S, (3R,4R,5S)-4-乙酰氨基-5-氨基-3-(戊-3-基氧基)环己-1-烯-1-羧酸]	–	–	–	–	484 ng/mL	–	671 ng/mL	–	–	–	737 ng/mL
